Where a name gives a salt, the structure may show the parent alone.
Key:
[1] = system: rat hepatocytes; assay: Hepatocyte viability during incubation (Guava ViaCount); format: cell-based; conditions: 10 μmol/L, percent viable cells relative to total cells, controls without compound 4-21%
Procedure: (§1) After thawing the cryopreserved hepatocytes, the viable cells were enriched by centrifugation in HepatoZYME cell culture medium (Gibco Invitrogen). For this purpose, the cells were added to 45 mL of a 37° C. warm HepatoZYME, and centrifuged at room temperature, at 50 g for 5 min. The supernatant containing dead cells was discarded and the cells in the pellet were re-suspended in HepatoZYME.
(§2) The viability of the re-suspended hepatocytes was determined by a Guava EasyCyte™ Mini system using the ViaCount® assay as described by the supplier (Guava Technologies, Hayward, Calif., USA). After cell counting, the cell concentration was adjusted to approx. 1·10^6 viable cells/mL by adding HepatoZYME. Subsequently, the incubations were started by adding [^14C]N-(1-methyl-5-(trifluoromethyl)-1H-pyrazol-3-yl)-5-(6-((methylamino)methyl)pyrimidin-4-yloxy)-1H-indole-1-carboxamide and non-labeled N-(1-methyl-5-(trifluoromethyl)-1H-pyrazol-3-yl)-5-(6-((methylamino)methyl)pyrimidin-4-yloxy)-1H-indole-1-carboxamide as a solution in DMSO. The final concentration of DMSO in the incubations was 0.1% (v/v).
(§3) To check the chemical stability of [^14C]N-(1-methyl-5-(trifluoromethyl)-1H-pyrazol-3-yl)-5-(6-((methylamino)methyl)pyrimidin-4-yloxy)-1H-indole-1-carboxamide under the incubation conditions, the compound was incubated at a concentration of 10 μmol/L in HepatoZYME without hepatocytes. A second series of control incubations was performed with hepatocytes of all species in the absence of the test compound to investigate the effect of the latter on the viability. These experiments were performed in a 12×6 mL MultiWell™ plate (Art. 393503, Beckton Dickinson).
(§4) The incubations were performed at 37° C. under a humidified atmosphere of 95% relative humidity and 5% CO2 in a Heraeus incubator/cytoperm (Kendro Laboratory Products AG, Zürich, Switzerland). During the incubations, the plates and flasks were shaken at 300 strokes per minute. The viability of the hepatocytes was determined after 6 h (end of incubation).

[2] = system: human hepatocytes; assay: as above; format: cell-based; conditions: 10 μmol/L, percent viable cells relative to total cells, controls without compound 4-21%
Procedure: as §1, §2, §3, §4

[3] = system: monkey hepatocytes; assay: as above; format: cell-based; conditions: 10 μmol/L, percent viable cells relative to total cells, controls without compound 4-21%
Procedure: as §1, §2, §3, §4

[4] = system: rabbit hepatocytes; assay: as above; format: cell-based; conditions: 10 μmol/L, percent viable cells relative to total cells, controls without compound 4-21%
Procedure: as §1, §2, §3, §4

[5] = Control incubations for chemical stability in incubation media; format: physicochemical; conditions: 10 μmol/L, 37° C., incubation media in the absence of hepatocytes or liver microsomes
Procedure: as §3
Microsomal incubations for metabolite profiles were performed at 10 μmol/L of [^14C]N-(1-methyl-5-(trifluoromethyl)-1H-pyrazol-3-yl)-5-(6-((methylamino)methyl)pyrimidin-4-yloxy)-1H-indole-1-carboxamide (approx. 50% radiolabeled) with one time point investigated (60 min). Incubations were performed at 37° C. in 0.1 mol/L sodium phosphate buffer pH 7.4. The final concentrations in the incubation cocktail were: 4 mmol/L UDPGA (Sigma-Aldrich), 1 mmol/L β-NADPH (Sigma-Aldrich), 5 mmol/L MgCl2, and 60 μg alamethicin (Sigma-Aldrich) per mg microsomal protein. The system was left to incubate for 10 min before adding the test compound to allow the pore formation with the alamethicin. […]

[6] = format: physicochemical
Description: Crystalline form B of the HCl salt of N-(1-methyl-5-(trifluoromethyl)-1H-pyrazol-3-yl)-5-((6-((methylamino)methyl)pyrimidin-4-yl)oxy)-1H-indole-1-carboxamide was obtained using the same procedure as in Example 5 above.

SMILES | Viability at 6 h [1] | Viability at 6 h [2] | Viability at 6 h [3] | Viability at 6 h [4] | Chemical stability under the incubation conditions [5] | Stability of crystalline form [6]
CNCc1cc(Oc2ccc3c(ccn3C(=O)Nc3cc(C(F)(F)F)n(C)n3)c2)ncn1 [N-(1-methyl-5-(trifluoromethyl)-1H-pyrazol-3-yl)-5-((6-((methylamino)methyl)pyrimidin-4-yl)oxy)-1H-indole-1-carboxamide] | 22% | 25% | 42% | 8% | confirmed the stability of the compound | –
CNCc1cc(Oc2ccc3c(ccn3C(=O)Nc3cc(C(F)(F)F)n(C)n3)c2)ncn1 [Form B, N-(1-methyl-5-(trifluoromethyl)-1H-pyrazol-3-yl)-5-((6-((methylamino)methyl)pyrimidin-4-yl)oxy)-1H-indole-1-carboxamide (HCl Salt) Form B] | – | – | – | – | – | transient form that converts back to Form A

Reference: patent publication US9604969B2, “Pyrimidin-4-yl)oxy)-1h-indole-1-carboxamide derivatives and use thereof” (NOVARTIS AG, priority 2013, dated 2017)
